The source of these data is patent US11504368B2, “2,6-diamino-3,4-dihydropyrimidin-4-one derivatives and use thereof in therapy” (THOMAS HELLEDAYS STIFTELSE FÖR MEDICINSK FORSKNING, priority 2018, dated 2022).

Usually IC50 stands for the concentration needed to halve the response being measured. Higher therefore signals weaker potency in that assay.

Experiment [1] has as its system colorectal cancer patient-derived xenograft. The note with it: colorectal cancer patient-derived xenograft mouse models; Ju et al. (2019); cited from earlier work. In general terms: Xenograft models place foreign cells or tissue in a host animal.
Experiment [2] has as its target T1, MTHFD2 (Homo sapiens (Human), UniProt P13995). The settings on record: Fu et al. Nat. Commun. (2017); cited from earlier work.
For a further experiment, the system named is HL-60 cells. Briefly: Cancer cell viability assay (HL-60, resazurin). It counts as cell-based. The note with it: Homo sapiens, 96 h, mean of at least 3 independent measurements, read-out: HL60 cell proliferation inhibition EC50. The procedure: HL-60 cells (human promyelocytic leukemia cells) were seeded in a 384-well plate at a density of 2,000 cells per well in 50 μL induction medium and treated with vehicle (DMSO) or an 11-point concentration range with 3-fold dilution in concentration of compound. Each assay point was run in duplicate. Wells without cells but with DMSO were used as negative controls. The cells were left to proliferate over a period of 96 h, in an incubator at 37° C. and 5% CO2, followed by an addition of 10 μL […] resazurin sodium salt (199303, Sigma-Aldrich) dissolved in DPBS (14190, Gibco). After 4 h of incubation at 37° C. and 5% CO2, the fluorescent signal was measured using an excitation wavelength of 544 nm and an emission wavelength of 595 nm in a Hidex Sense plate reader. Cell plates were incubated in boxes with damp paper tissues to avoid evaporation. All additions, except compound and DMSO, were done using the Multidrop Combi (Thermo Fisher Scientific). DMSO and compounds were pre-dispensed with an Echo 550 Liquid handler (Labcyte) in black, clear bottom, TC-treated and sterile 384-well plates (3764, Corning). Growth medium consisted of RPMI 1640 GlutaMAX (61870, Gibco), 10% (v/v) FBS (10500, Gibco), and 1% (v/v) P/S (15070, Gibco). Induction medium consisted of RPMI 1640 GlutaMAX (61870, Gibco), 5% (v/v) FBS (10500, Gibco), and 1% (v/v) P/S (15070, Gibco). EC50 values were determined by fitting a four parameter sigmoidal curve model using XLfit (IDBS). Reported EC50 values are the mean of at least 3 independent measurements.
For orientation: Resazurin is reduced to fluorescent resorufin, in cell work by metabolically active cells.

In experiment [3] the target is T1, MTHFD2. Briefly: Inhibition of MTHFD2 (NAD(P)H-Glo luminescence). Type of experiment: biochemical. The settings on record: 3.4 nmol/L MTHFD2, 5 μmol/L folitixorin, 250 μmol/L NAD+; mean of at least 3 independent measurements. The procedure:
DMSO was used as negative control. The serial dilution in DMSO, from compound DMSO stock solution, was created by dispensing from a 384-well low dead volume microplate (LP-0200, Labcyte) and a 384-well polypropylene microplate 2.0 (PP-0200, Labcyte). A total of 2.5 μL MTHFD2 was preincubated with compound or DMSO for 10 min. The enzymatic reaction was initiated by adding 2.5 μL folitixorin (F680350, Toronto Research Chemicals). For background control, 5 μL buffer was added to the well. […] The final concentrations of all reagents in a total assay volume of 5 μL per well were 50 mmol/L Tris-HCl at pH 8.0, 100 mmol/L NaCl, 5 mmol/L MgCl2, 25 mmol/L Na3PO4 at pH 8.0, 0.005% (v/v) Tween-20, and 2 mmol/L 2-mercaptoethanol. After 15 min reaction time, 5 μL NAD(P)H-Glo detection reagent (G9061 or G9062, Promega) was dispensed in all wells and the plate was incubated for 60 min. Luminescence was measured on a plate reader (Envision, PerkinElmer or Sense, Hidex). The light signal produced is proportional to the amount of NAD(P)H in the sample. IC50 values were determined by fitting a four parameter sigmoidal curve model using XLfit (IDBS). Reported IC50 values are the mean of at least 3 independent measurements.

The structures appear in SMILES notation. Structures can show the parent of a compound that is named as a salt.

T1 sequence (P13995 36-350): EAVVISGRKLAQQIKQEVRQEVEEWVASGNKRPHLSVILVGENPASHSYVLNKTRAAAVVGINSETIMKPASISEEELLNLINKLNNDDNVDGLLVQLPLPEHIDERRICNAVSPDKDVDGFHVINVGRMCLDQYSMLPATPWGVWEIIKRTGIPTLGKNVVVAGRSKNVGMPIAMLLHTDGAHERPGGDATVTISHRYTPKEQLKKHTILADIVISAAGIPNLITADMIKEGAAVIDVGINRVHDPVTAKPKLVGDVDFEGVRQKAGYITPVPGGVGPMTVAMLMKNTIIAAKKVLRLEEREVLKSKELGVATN

As for `Nc1nc2c(c(=O)[nH]1)N1C(=O)N(c3ccc(C(=O)N[C@@H](CCC(=O)O)C(=O)O)cc3)CC1CN2` (stereo partly drawn) [LY345899], in experiment [1], the tumor growth result is on record as “statistically significantly suppresses tumor growth” and the tumor weight result is recorded as “decreases tumor weight”.

As for `CO[C@H](CC(=O)O)[C@@H](C)C(=O)[C@H](C)/C=C(\C)[C@H]1OC(=O)[C@H](O)[C@H](O)/C=C/[C@H](C)CCC[C@@H]1C` [carolacton], the “inhibitor of human MTHFD2” value at MTHFD2 [2] is “nanomolar inhibitor”.

For `Nc1nc(N)c(NC(=O)Nc2ccc(C(=O)N[C@@H](CCc3nnn[nH]3)C(=O)O)nc2)c(=O)[nH]1` [Example 4, (2S)-2-[(5-{[(2,4-diamino-6-oxo-1,6-dihydropyrimidin-5-yl)carbamoyl]amino}pyridin-2-yl)formamido]-4-(1H-1,2,3,4-tetrazol-5-yl)butanoic acid], the EC50 in the experiment on HL-60 cells was determined as 24 nM. On MTHFD2 [3], this molecule showed an IC50 of 12 nM.

Take `Cc1cc(NC(=O)Cc2c(N)nc(N)[nH]c2=O)cnc1C(=O)N[C@@H](CCC(=O)O)C(=O)O` [Example 20, (2S)-2-({5-[2-(2,4-diamino-6-oxo-1,6-dihydropyrimidin-5-yl)acetamido]-3-methylpyridin-2-yl}formamido)pentanedioic acid]: the EC50 with HL-60 cells was determined as 34 nM. On MTHFD2 [3], this molecule yielded an IC50 of 913 nM.

As for `Nc1nc(N)c(CC(=O)Nc2cnc(C(=O)N[C@@H](Cc3ccccc3)C(=O)O)c(F)c2)c(=O)[nH]1` [Example 33, (2S)-2-((5-[2-(2,4-diamino-6-oxo-1,6-dihydropyrimidin-5-yl)acetamido]-3-fluoropyridin-2-yl)formamido)-3-phenylpropanoic acid], the EC50 in the experiment with HL-60 cells was determined as 24 nM. Besides, half-maximal inhibition on MTHFD2 [3] (IC50) required 92 nM.

For the molecule `Nc1nc(N)c(CC(=O)Nc2ccc(C(=O)N[C@@H](Cc3ccccc3)C(=O)O)nc2)c(=O)[nH]1` [Example 8, (2S)-2-({5-[2-(2,4-diamino-6-oxo-1,6-dihydropyrimidin-5-yl)acetamido]pyridin-2-yl}formamido)-3-phenylpropanoic acid], the EC50 in the experiment with HL-60 cells was 62 nM. Moreover, half-maximal inhibition at MTHFD2 [3] (IC50) required 312 nM.

`Nc1nc(N)c(NC(=O)Nc2ccc(C(=O)N[C@@H](CCC(=O)N[C@H](CCC(=O)O)C(=O)O)C(=O)O)nc2)c(=O)[nH]1` [Example 25, (2R)-2-[(4S)-4-carboxy-4-[(5-{[(2,4-diamino-6-oxo-1,6-dihydropyrimidin-5-yl)carbamoyl]amino}pyridin-2-yl)formamido]butanamido]pentanedioic acid]: the EC50 in the experiment with HL-60 cells was 1940 nM. Inhibition at MTHFD2 [3] was half-maximal at 30 nM (IC50).

In the case of `Nc1nc(N)c(CC(=O)Nc2ccc(C(=O)N[C@@H](CCC(=O)O)C(=O)O)nc2)c(=O)[nH]1` [Example 7, (2S)-2-((5-[2-(2,4-diamino-6-oxo-1,6-dihydropyrimidin-5-yl)acetamido]pyridin-2-yl)formamido)pentanedioic acid hydrochloride], the EC50 with HL-60 cells came out at 17 nM. This molecule also returned an IC50 on MTHFD2 [3] of 154 nM.

As for `Nc1nc(N)c(CC(=O)Nc2ccc(C(=O)N[C@@H](CCC(=O)O)C(=O)O)nc2Oc2ccccc2)c(=O)[nH]1` [Example 26, (2S)-2-((5-[2-(2,4-diamino-6-oxo-1,6-dihydropyrimidin-5-yl)acetamido]-6-phenoxypyridin-2-yl)formamido)pentanedioic acid], the EC50 in the experiment with HL-60 cells stood at 6190 nM. Further, at MTHFD2 [3], the IC50 was 14 nM.

For the molecule `Nc1nc(N)c(NC(=O)Nc2ccc(C(=O)N[C@@H](CCC(=O)O)C(=O)O)nc2OC2CC2)c(=O)[nH]1` [Example 18, (2S)-2-[(6-cyclopropoxy-5-{[(2,4-diamino-6-oxo-1,6-dihydropyrimidin-5-yl)carbamoyl]amino}pyridin-2-yl)formamido]pentanedioic acid], the EC50 with HL-60 cells is 45 nM. This molecule displayed an IC50 against MTHFD2 [3] of 3 nM.

Regarding `Nc1nc(N)c(NC(=O)Nc2ccc(C(=O)N[C@H](C(=O)O)C3CCCCC3)nc2)c(=O)[nH]1` [Example 12, (2S)-2-cyclohexyl-2-[(5-{[(2,4-diamino-6-oxo-1,6-dihydropyrimidin-5-yl)carbamoyl]amino}pyridin-2-yl)formamido]acetic acid], in the experiment on HL-60 cells, the EC50 worked out at 7 nM. This molecule also registered an IC50 against MTHFD2 [3] of 17 nM.

With `Nc1nc(N)c(NC(=O)Nc2cnc(C(=O)N[C@@H](CCC(=O)O)C(=O)O)c(Cl)c2)c(=O)[nH]1` [Example 5, (2S)-2-[(3-chloro-5-{[(2,4-diamino-6-oxo-1,6-dihydropyrimidin-5 yl)carbamoyl]amino}pyridin-2-yl)formamido]pentanedioic acid], in the experiment on HL-60 cells, the EC50 amounted to 93 nM. This molecule had an IC50 against MTHFD2 [3] of 15 nM.

Turning to `Nc1nc(N)c(CC(=O)Nc2ccc(C(=O)N[C@@H](CCC(=O)N[C@@H](CCC(=O)O)C(=O)O)C(=O)O)nc2)c(=O)[nH]1` [Example 28, (2S)-2-[(4S)-4-carboxy-4-({5-[2-(2,4-diamino-6-oxo-1,6-dihydropyrimidin-5-yl)acetamido]pyridin-2-yl}formamido)butanamido]pentanedioic acid], in the experiment with HL-60 cells, the EC50 was determined as 22 nM. In addition, the IC50 on MTHFD2 [3] was found to be 92 nM.

Consider `Nc1nc(N)c(NC(=O)Nc2cnc(C(=O)N[C@@H](CCc3nnn[nH]3)C(=O)O)c(F)c2)c(=O)[nH]1` [Example 24, (2S)-2-[(5-{[(2,4-diamino-6-oxo-1,6-dihydropyrimidin-5-yl)carbamoyl]amino}-3-fluoropyridin-2-yl)formamido]-4-(1H-1,2,3,4-tetrazol-5-yl)butanoic acid], for which the EC50 with HL-60 cells came to 2 nM. The IC50 on MTHFD2 [3] turned out to be 3 nM.

For `Nc1nc(N)c(NC(=O)Nc2cnc(C(=O)N[C@@H](CCC(=O)O)C(=O)O)c(F)c2)c(=O)[nH]1` [Example 6, (2S)-2-[(5-{[(2,4-diamino-6-oxo-1,6-dihydropyrimidin-5-yl)carbamoyl]amino}-3-fluoropyridin-2-yl)formamido]pentanedioic acid], the EC50 with HL-60 cells was 100 nM. The same molecule displayed an IC50 at MTHFD2 [3] of 10 nM.

For `Nc1nc(N)c(NC(=O)Nc2ccc(C(=O)N[C@@H](CC(=O)O)C(=O)O)nc2)c(=O)[nH]1` [Example 22, (2S)-2-[(5-{[(2,4-diamino-6-oxo-1,6-dihydropyrimidin-5-yl)carbamoyl]amino}pyridin-2-yl)formamido]butanedioic acid], the EC50 in the experiment with HL-60 cells came to 12800 nM. Further, the IC50 against MTHFD2 [3] came out at 195 nM.

Turning to `Nc1nc(N)c(CC(=O)Nc2cnc(C(=O)N[C@@H](CCc3nnn[nH]3)C(=O)O)c(F)c2)c(=O)[nH]1` [Example 32, (2S)-2-((5-[2-(2,4-diamino-6-oxo-1,6-dihydropyrimidin-5-yl)acetamido]-3-fluoropyridin-2-yl)formamido)-4-(1H-1,2,3,4-tetrazol-5-yl)butanoic acid], the EC50 in the experiment with HL-60 cells was 10 nM. The molecule further displayed an IC50 against MTHFD2 [3] of 13 nM.
